# Measured values: patent US20240400560A1, “BICYCLIC HETEROCYCLIC DERIVATIVE HAVING VIRAL GROWTH INHIBITORY ACTIVITY AND PHARMACEUTICAL COMPOSITION CONTAINING SAME” (Shionogi & Co., Ltd., priority 2021, published 2024)
# Read-outs that look alike come from different tables or passages of the source.
# Target: SARS-CoV-2 3CL protease (Severe acute respiratory syndrome coronavirus 2, UniProt P0DTD1)
# Assay: Inhibitory activity test against SARS-CoV-2 3CL proteases
# Type: biochemical
# [1] = read-out: IC50 (50% SARS-CoV-2 3CL protease inhibitory concentration)
SMILES,IC50 [1] [µM],IC50 (IC50 (50% SARS-CoV-2 3CL protease inhibitory concentration)) [µM]
COc1cc(-c2cnc(N)cc2Cl)cc2c1c(=O)n(Cc1ncn(C)n1)c(=O)n2Cc1cc(F)c(F)c(F)c1 [Compound I-0514],< 0.1,–
COc1cc(-c2cc(-c3ncc[nH]3)ccc2Cl)cc2c1c(=O)n(-c1cncc(Cl)c1)c(=O)n2Cc1ccc(F)c(C#N)c1 [Compound I-0120],< 0.1,–
COc1cc(-c2cc(CC(=O)N(C)C)ccc2Cl)cc2c1c(=O)n(-c1cncc(Cl)c1)c(=O)n2Cc1cc(Cl)ccc1C [Compound I-0205],< 0.1,–
COc1cc(-c2cc(CC(=O)NC3CCN(C)CC3)ccc2Cl)cc2c1c(=O)n(-c1cncc(Cl)c1)c(=O)n2Cc1cc(Cl)ccc1C [Compound I-0187],0.005,–
COc1cc(-c2cc(C#N)ccc2Cl)cc2c1c(=O)n(-c1cncc(C)c1)c(=O)n2Cc1cc(F)c(F)c(C#N)c1 [Compound I-0165],0.0012,–
COc1cc(-c2cc(CC(=O)N3CC[C@H](N)C3)ccc2Cl)cc2c1c(=O)n(-c1cncc(Cl)c1)c(=O)n2Cc1cc(F)c(F)c(F)c1 [Compound I-0211],< 0.1,–
COc1cc(-c2c(Cl)ccc3c(=O)n(C)ccc23)cc2c1c(=O)n(Cc1ncn(C)n1)c(=O)n2Cc1cc(F)c(F)c(F)c1 [Compound I-0268],0.0075,–
Cn1cnc(Cn2c(=O)c3c4c(c(-c5cc6c(cc5Cl)NC(=O)C6)cc3n(Cc3cc(F)c(F)c(F)c3)c2=O)CCO4)n1 [Compound I-0353],0.00045,–
COc1cc(-c2cc3cn[nH]c3cc2Cl)cc2c1c(=O)n(Cc1ncn(C)n1)c(=O)n2Cc1cc(Cl)c(F)cc1F [Compound I-0272],< 0.1,–
Cn1cnc(Cn2c(=O)c3c(F)cc(-c4cc(C#N)ccc4Cl)cc3n(Cc3cc(F)c(F)c(Cl)c3)c2=O)n1 [Compound I-0281],< 0.1,–
COc1cc(-c2cc(C(=O)N3CCOCC3)ccc2Cl)cc2c1c(=O)n(-c1cncc(C)c1)c(=O)n2Cc1ccc(F)c(C#N)c1 [Compound I-0209],< 0.1,–
COc1cc(-c2cc3c(cc2Cl)NC(=O)C3(C)C)cc2c1c(=O)n(Cc1ncn(C)n1)c(=O)n2Cc1cc(F)c(F)c(F)c1 [Compound I-0275],0.019,–
COc1nc(-c2cc(C#N)ccc2Cl)cc2c1c(=O)n(-c1cncc(Cl)c1)c(=O)n2Cc1cc(F)c(F)c(F)c1 [Compound I-0178],< 0.1,–
NC1CCN(c2ccc3c(=O)n(Cc4ccc[nH]c4=O)c(=O)n(Cc4cc(F)c(F)c(F)c4)c3c2)C1 (centres unmarked) [Compound I-0142],0.025,–
COc1cc(-c2cc3[nH]c(=O)[nH]c3cc2Cl)cc2c1c(=O)n(Cc1ncn(C)n1)c(=O)n2Cc1cc(F)c(F)c(F)c1 [Compound I-0265],< 0.1,–
Cn1cnc(Cn2c(=O)c3c(F)cc(-c4cc5cn[nH]c5cc4Cl)c(F)c3n(Cc3cc(F)c(F)c(F)c3)c2=O)n1 [Compound I-0006],< 0.1,–
COc1nc(N2CC[C@@H](F)C2)cc2c1c(=O)n(Cc1ncn(C)n1)c(=O)n2Cc1cc(F)c(F)c(Cl)c1 [Compound I-0484],< 0.1,–
Cn1cnc(Cn2c(=O)c3c(F)cc(-c4nc5c(cc4Cl)NC(=O)C54CC4)cc3n(Cc3cc(F)c(F)c(F)c3)c2=O)n1 [Compound I-0008],0.021,–
Cn1cnc(Cn2c(=O)c3c(F)c(Cl)c(-c4cc(C#N)ccc4Cl)cc3n(Cc3cc(F)c(F)c(Cl)c3)c2=O)n1 [Compound I-0506],< 0.1,–
COc1cc(-c2cc(C(O)C(F)(F)F)ccc2Cl)cc2c1c(=O)n(Cc1ncn(C)n1)c(=O)n2Cc1cc(F)c(F)c(F)c1 (centres unmarked) [Compound I-0517],< 0.1,–

SMILES,IC50 [1] [µM],IC50 (IC50 (50% SARS-CoV-2 3CL protease inhibitory concentration)) [µM]
Cc1cncc(-n2c(=O)c3c(Cl)cc(-c4cc(C#N)ccc4Cl)cc3n(Cc3cc(F)c(F)c(F)c3)c2=O)c1 [Compound I-0012],< 0.1,–
Cn1cnc(Cn2c(=O)c3c4c(c(-c5cc(C#N)ccc5Cl)cc3n(Cc3cc(F)c(F)c(F)c3)c2=O)CCO4)n1 [Compound I-0414],0.0015,–
Cn1cnc(Cn2c(=O)c3ccc(-c4cc5c(cc4Cl)NC(=O)C5)c(F)c3n(Cc3cc(F)c(F)c(F)c3)c2=O)n1 [Compound I-0250],0.035,–
COc1cc(-c2cc3c(cc2Cl)NC(=O)CC3)cc2c1c(=O)n(Cc1ncn(C)n1)c(=O)n2Cc1cc(F)c(F)c(F)c1 [Compound I-0125],0.032,–
COc1cc(-c2cc(CO)ccc2Cl)cc2c1c(=O)n(-c1cncc(C)c1)c(=O)n2Cc1cc(F)c(F)c(F)c1 [Compound I-0030],0.0085,–
COc1cc(N2C[C@H]3C[C@@H]2CN3)cc2c1c(=O)n(-c1cncc(Cl)c1)c(=O)n2Cc1cc(F)c(F)c(F)c1 [Compound I-0396],0.0013,–
COc1cc(-c2cc(C#N)ccc2Cl)cc2c1c(=O)n(-c1cncc(C)c1)c(=O)n2Cc1cc(F)c(F)c(F)c1 [Compound I-0026],0.0065,–
COc1cc(-c2cc(S(C)(=O)=O)ccc2Cl)cc2c1c(=O)n(Cc1ncn(C)n1)c(=O)n2Cc1cc(F)c(F)c(F)c1 [Compound I-0122],0.027,–
Cn1cnc(Cn2c(=O)c3c(F)cc(-c4cc5cn[nH]c5cc4Cl)cc3n(Cc3cc(F)c(F)c(Cl)c3)c2=O)n1 [Compound I-0269],< 0.1,–
Cn1cnc(Cn2c(=O)c3ncc(-c4cc5c(cc4Cl)NC(=O)C5)cc3n(Cc3cc(F)c(F)c(Cl)c3)c2=O)n1 [Compound I-0121],< 0.1,–
O=c1[nH]cccc1Cn1c(=O)c2c(n(Cc3cc(F)c(F)c(F)c3)c1=O)CCCC2 [Compound I-0325],0.45,–
Cn1cnc(Cn2c(=O)c3c(F)cc(-c4cc5c(cc4Cl)NC(=O)C5)cc3n(Cc3cc(F)c(F)c(Cl)c3)c2=O)n1 [Compound I-0267],< 0.1,–
COc1cc(-c2cc3c(cc2Cl)NC(=O)C3)cc2c1c(=O)n(-c1cncc(C)c1)c(=O)n2Cc1cc(F)c(F)c(C#N)c1 [Compound I-0161],0.00075,–
COc1cc(-c2cc(C(=O)NCCNCCO)ccc2Cl)cc2c1c(=O)n(Cc1ncn(C)n1)c(=O)n2Cc1cc(F)c(F)c(F)c1 [Compound I-0216],< 0.1,–
Cn1cnc(Cn2c(=O)c3c(Cl)cc(-c4cc5c(cc4Cl)NC(=O)C5)cc3n(Cc3cc(Cl)c(F)cn3)c2=O)n1 [Compound I-0117],< 0.1,–
Cn1cnc(Cn2c(=O)c3c(F)cc(-c4cc5c(cc4Cl)NC(=O)C5)cc3n(Cc3cc(F)c(F)c(F)c3)c2=O)n1 [Compound I-0270],< 0.1,–
COc1cc(-c2cc(NS(C)(=O)=O)ccc2Cl)cc2c1c(=O)n(-c1cncc(C)c1)c(=O)n2Cc1cc(F)c(F)c(F)c1 [Compound I-0070],0.0098,–
COc1cc(-c2c(Cl)ccc3ncccc23)cc2c1c(=O)n(-c1cncc(C)c1)c(=O)n2Cc1ccc(F)c(C#N)c1 [Compound I-0068],0.0058,–
O=c1[nH]cccc1Cn1c(=O)c2ccc(N3[C@@H]4CNC[C@H]3COC4)cc2n(Cc2cc(F)c(F)c(F)c2)c1=O [Compound I-0381],–,< 0.1
COc1nc(N2CC[C@@H](C(N)=O)C2)cc2c1c(=O)n(Cc1ncn(C)n1)c(=O)n2Cc1cc(F)c(F)c(Cl)c1 [Compound I-0445],0.022,–

SMILES,IC50 [1] [µM],IC50 (IC50 (50% SARS-CoV-2 3CL protease inhibitory concentration)) [µM]
Cn1c(-c2cc(C#N)ccc2Cl)cc2c(c1=O)c(=O)n(-c1cncc(Cl)c1)c(=O)n2Cc1cc(F)c(F)c(F)c1 [Compound I-0435],0.001,–
Cc1cc2c(=O)n(Cc3ncn(C)n3)c(=O)n(Cc3cc(F)c(F)c(F)c3)c2cc1-c1cc2c(cc1Cl)NC(=O)C2 [Compound I-0248],0.0073,–
CC(C)Nc1cc2c(c(=O)n(Cc3ncn(C)n3)c(=O)n2Cc2cc(F)c(F)c(F)c2)c2ncn(C)c12 [Compound I-0553],0.1 to 1,–
COc1cc(-c2cc(C#N)ccc2Cl)cc2c1c(=O)n(Cc1ncn(C)n1)c(=O)n2Cc1cc(Cl)c(F)cc1F [Compound I-0279],< 0.1,–
Cn1cnc(Cn2c(=O)c3c(F)c(I)c(-c4cc(C#N)ccc4Cl)cc3n(Cc3cc(F)c(F)c(Cl)c3)c2=O)n1 [Compound I-0542],< 0.1,–
COc1cc(-c2cc(C(C)(C)O)ccc2Cl)cc2c1c(=O)n(-c1cncc(Cl)c1)c(=O)n2Cc1cc(F)c(F)c(F)c1 [Compound I-0075],0.018,–
COc1cc(-c2cc(C#N)ccc2Cl)cc2c1c(=O)n(Cc1ncn(C)n1)c(=O)n2Cc1cc(F)c(F)c(Cl)c1 [Compound I-0271],< 0.1,–
CN=S(C)(=O)c1ccc(Cl)c(-c2cc(OC)c3c(=O)n(-c4cncc(Cl)c4)c(=O)n(Cc4cc(F)c(F)c(F)c4)c3c2)c1 (centres unmarked) [Compound I-0199],0.016,–
COc1cc(-c2cc(C(C)(C)O)ccc2Cl)cc2c1c(=O)n(-c1cncc(C)c1)c(=O)n2Cc1ccc(F)c(C#N)c1 [Compound I-0061],0.0029,–
COc1nc2cc(-c3cc(OC)c4c(=O)n(Cc5ncn(C)n5)c(=O)n(Cc5cc(F)c(F)c(F)c5)c4c3)c(Cl)cc2[nH]1 [Compound I-0501],0.0064,–
O=c1[nH]cccc1Cn1c(=O)c2ccc(N3C[C@H]4C[C@@H]3CN4)cc2n(Cc2cc(F)c(F)c(F)c2)c1=O [Compound I-0140],0.0013,–
N#Cc1ccc(Cl)c(-c2cc3c(c4c2CCO4)c(=O)n(Cc2ncccn2)c(=O)n3Cc2cc(F)c(F)c(F)c2)c1 [Compound I-0442],< 0.1,–
COc1cc(-c2cc(C(C)(C)O)ccc2Cl)cc2c1c(=O)n(-c1cncc(C)c1)c(=O)n2Cc1cc(F)c(F)c(F)c1 [Compound I-0069],0.006,–
COc1cc(-c2cc(NS(C)(=O)=O)ccc2Cl)cc2c1c(=O)n(Cc1ncn(C)n1)c(=O)n2Cc1cc(F)c(F)c(F)c1 [Compound I-0136],< 0.1,–
Cc1cncc(-n2c(=O)c3c(Cl)cc(-c4cc(CO)ccc4Cl)cc3n(Cc3cc(F)c(F)c(F)c3)c2=O)c1 [Compound I-0016],< 0.1,–
Cn1cnc(Cn2c(=O)c3c(F)c(Cl)c(-c4cc5c(cc4Cl)NC(=O)C5)cc3n(Cc3cc(F)c(F)c(Cl)c3)c2=O)n1 [Compound I-0492],< 0.1,–
N#Cc1ccc(Cl)c(-c2cc3c(c(=O)[nH]2)c(=O)n(-c2cncc(Cl)c2)c(=O)n3Cc2cc(F)c(F)c(F)c2)c1 [Compound I-0431],0.011,–
CNC(=O)c1ccc(Cl)c(-c2cc(OC)c3c(=O)n(-c4cncc(C)c4)c(=O)n(Cc4ccc(F)c(C#N)c4)c3c2)c1 [Compound I-0192],< 0.1,–
COc1nc2c(=O)n(Cc3ncn(C)n3)c(=O)n(Cc3cc(F)c(F)c(F)c3)c2cc1-c1cc(C#N)ccc1Cl [Compound I-0516],0.015,–
